Results reported in US20220395553A1, “CXCR4 ANTAGONIST PEPTIDES” (COHBAR, INC., priority 2019, published 2022).
Square brackets hold non-standard residues; d marks the D form. Peptide text beside a SMILES is read from it.

Experiments:
[1] = system: CXCR4/CXCL12 induced p-MEK; test: CXCR4/CXCL12 induced p-MEK in Jurkat cells (ELISA); assay type: cell-based, human; settings: 5 nM CXCL12, 5 min
Outline: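 Jurkat cells in RPMI+GlutaMax containing 10% FBS and 1% penicillin/streptomycin, fresh or conditioned, were resuspended at 2×10^6 cells/ml and […] aliquots placed in tubes. After a 5 min stimulation they were pelleted, rinsed with HBSS and lysed with PMSF and protease/phosphatase inhibitors. Phospho-MEK1 (Ser217/221) was quantified by sandwich ELISA with absorbance read at 450 nm.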

[2] = system: A172 human brain glioblastoma cell line; test: Caspase 3/7 activity (Caspase-Glo 3/7) in cultured cells; assay type: cell-based; settings: peptide 10 μM, 18-20 hours, relative to 0.1% DMSO control
Method: The effect of the peptides on cell death/survival can be assessed using a caspase-3/7 assay in cultured cells. Peptides were dissolved at 10 mM in DMSO as stock solutions for use at a final concentration of 10 μM. […] Caspase-Glo 3/7 Assay Reagent was purchased from Promega (Madison, Wis.). A172 human brain glioblastoma cell line was purchased from American Type Culture Collection (Manassas, Va.). A172 cells were grown in DMEM supplemented with 10% FBS with 100 IU/ml penicillin and 100 μg/ml streptomycin. Cultures were maintained at 37° C. in a humidified atmosphere of 5% CO2/95% air. A172 cells were seeded at 8,000 cells per well on 96-well plates. […] Caspase 3/7 activity was determined using a Caspase-Glo 3/7 Assay kit (Promega) according to the manufacturer's instructions. Luminescence for each sample well on the plate was measured using a Cytation 3 plate reader (BioTek, Winooski, Vt.). Activity was calculated relative to 0.1% DMSO control.

3T3-L1 Mouse Adipocytes = test: Free fatty acid levels in cultured mouse adipocytes; assay type: cell-based; settings: peptide 10 μM, 20-22 hours then 3 hours with 1 nM isoproterenol; relative to isoproterenol treated cells
Method: The effect of the peptides on fatty acid metabolism can be assessed using an assay of free fatty acid levels in cultured cells such as mouse adipocytes. Peptides were initially prepared as 10 mM stock in DMSO and used at a final concentration of 10 μM (0.1% DMSO). […] Mouse 3T3-L1 cells purchased from ZenBio were seeded at 3,000 cells per well in 96-well plates in Pre-adipocyte Medium (Zen-Bio) and grown to confluence at 37° C. in a humidified atmosphere of 5% CO2/95% air. Two days after confluence, cells were placed in Adipocyte Differentiation Medium (Zen-Bio) and cultured for three additional days at 37° C. in a humidified atmosphere of 5% CO2/95% air. The culture media was then replaced with Adipocyte Maintenance Medium (Zen-Bio) and the cells maintained for an additional 9-12 days at 37° C. in a humidified atmosphere of 5% CO2/95% air with partial medium replacement every other day. Following 12-15 days of differentiation, test peptides were added at a final concentration of 10 μM in 0.1% DMSO and incubated for 20-22 hours in Adipocyte Maintenance Medium at 37° C. in a humidified atmosphere of 5% CO2/95% air. After 20-22 hours, 1 nM isoproterenol was added to all wells except untreated controls and test peptides were replenished. Insulin at 100 nM was added to control wells. Cells were incubated for 3 hours in Assay Buffer (Zen-Bio) at 37° C. in a humidified atmosphere of 5% CO2/95% air. Free fatty acid concentrations in the media were determined using a Free Fatty Acid Assay kit (Zen-Bio) according to the manufacturer's instructions using a Cytation 3 plate reader at 540 nm (BioTek, Winooski, Vt.). Absorbance values were corrected for untreated background and expressed relative to isoproterenol treated cells. Treatment with isoproterenol (1 nM) alone was used as the free fatty acid level stimulatory control. The relative standard deviation of the isoproterenol control was <10%. […] Free fatty acid levels for insulin (100 nM) treatment were <5% of the isoproterenol control value.

human CXCR4 = human CXCR4 (Homo sapiens, UniProt P61073); test: IC50 for CXCR4/CXCL12 ligand binding, HTRF format (Example 24); set-up: host or cells: HEK293 (Tag-lite CXCR4 cells, frozen aliquots, transient expression)
human CXCR4, sequence (P61073 whole entry): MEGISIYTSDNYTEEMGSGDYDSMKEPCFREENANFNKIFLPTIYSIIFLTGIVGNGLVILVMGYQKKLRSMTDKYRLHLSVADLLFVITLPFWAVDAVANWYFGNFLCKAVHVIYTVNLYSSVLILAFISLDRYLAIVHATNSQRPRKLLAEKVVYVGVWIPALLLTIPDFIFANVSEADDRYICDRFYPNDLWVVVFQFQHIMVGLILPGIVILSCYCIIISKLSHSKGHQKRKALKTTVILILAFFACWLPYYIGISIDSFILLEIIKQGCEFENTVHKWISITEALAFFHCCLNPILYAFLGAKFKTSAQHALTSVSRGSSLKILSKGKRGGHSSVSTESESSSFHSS

SMILES | Percent Inhibition of CXCR4/CXCL12 Induced p-MEK (100 nM Test Article) [1] [%] | Percent Inhibition of CXCR4/CXCL12 Induced p-MEK (1 μM Test Article) [1] [%] | Caspase 3/7 Activity, Percent of Control Activity [2] [%] | Free Fatty Acid Levels, MEAN % ISO (3T3-L1 Mouse Adipocytes) [%] | IC50 (human CXCR4) [nM]
CSCC[C@H](N)C(=O)N[C@@H](CC(C)C)C(=O)N[C@@H](CCCNC(=N)N)C(=O)N[C@@H](CCCNC(=N)N)C(=O)N[C@@H](Cc1ccc(O)cc1)C(=O)N[C@@H](Cc1c[nH]cn1)C(=O)N[C@@H](Cc1c[nH]cn1)C(=O)N[C@@H](CO)C(=O)N[C@H](C(=O)N[C@@H](CCCNC(=N)N)C(=O)N[C@@H](CO)C(=O)N[C@@H](CO)C(=O)N[C@@H](CC(C)C)C(=O)N[C@@H](CCCNC(=N)N)C(=O)N1CCC[C@H]1C(=O)N[C@@H](Cc1ccc(O)cc1)C(=O)N[C@H](C(=O)N[C@@H](CCCCN)C(=O)O)[C@@H](C)O)C(C)C [compound 2] (H-MLRRYHHSVRSSLRPYTK-OH; N-terminus and C-terminus assumed) | −1 | 28 | 96.7 | 83.2 | 
CC(C)C[C@H](NC(=O)[C@H](CO)NC(=O)[C@H](CO)NC(=O)[C@H](CCCNC(=N)N)NC(=O)[C@@H](NC(=O)[C@H](CO)NC(=O)[C@H](Cc1c[nH]cn1)NC(=O)[C@H](Cc1c[nH]cn1)NC(=O)[C@H](Cc1ccc(O)cc1)NC(=O)[C@H](CCCNC(=N)N)NC(=O)[C@H](CCCNC(=N)N)NC(=O)[C@@H](N)CC(C)C)C(C)C)C(=O)N[C@@H](CCCNC(=N)N)C(=O)N1CCC[C@H]1C(=O)N[C@@H](Cc1ccc(O)cc1)C(=O)N[C@H](C(=O)N[C@@H](CCCCN)C(=O)O)[C@@H](C)O [compound 3] (H-LRRYHHSVRSSLRPYTK-OH; N-terminus and C-terminus assumed) | 29 | 91 | 121.4 | 82.0 | 
CC(C)C[C@H](NC(=O)[C@H](CO)NC(=O)[C@H](CO)NC(=O)[C@H](CCCNC(=N)N)NC(=O)[C@@H](NC(=O)[C@H](CO)NC(=O)[C@H](Cc1c[nH]cn1)NC(=O)[C@H](Cc1c[nH]cn1)NC(=O)[C@H](Cc1ccc(O)cc1)NC(=O)[C@H](CCCNC(=N)N)NC(=O)[C@H](CCC(=O)O)NC(=O)[C@@H](N)CC(C)C)C(C)C)C(=O)N[C@@H](CCCNC(=N)N)C(=O)N1CCC[C@H]1C(=O)N[C@@H](Cc1ccc(O)cc1)C(=O)N[C@H](C(=O)N[C@@H](CCCCN)C(=O)O)[C@@H](C)O [compound 4] (H-LERYHHSVRSSLRPYTK-OH; N-terminus and C-terminus assumed) | 40 | 76 | 107.7 | 92.3 | 6
CC(C)C[C@H](NC(=O)[C@H](CO)NC(=O)[C@H](CO)NC(=O)[C@H](CCCNC(=N)N)NC(=O)[C@@H](C)NC(=O)[C@H](CO)NC(=O)[C@H](Cc1c[nH]cn1)NC(=O)[C@H](Cc1c[nH]cn1)NC(=O)[C@H](Cc1ccc(O)cc1)NC(=O)[C@H](CCCNC(=N)N)NC(=O)[C@H](CCC(=O)O)NC(=O)[C@@H](N)CC(C)C)C(=O)N[C@@H](CCCNC(=N)N)C(=O)N1CCC[C@H]1C(=O)N[C@@H](Cc1ccc(O)cc1)C(=O)N[C@H](C(=O)O)[C@@H](C)O [compound 5] (H-LERYHHS[dA]RSSLRPYT-OH; N-terminus and C-terminus assumed) | −20 | 24 | 104.7 | 86.9 | 33
